Measurements published in patent US10370388B2, “Heterocyclic compounds and methods of their use” (NOVARTIS AG, priority 2012, dated 2019).

What was measured:
AT1 receptor = AT1 receptor (Homo sapiens (Human), UniProt P30556); test: AT1 receptor binding assay ([125I]-Sar1-Ile8-Angiotensin II, HEK293/AT1 receptor cell membranes); details: similar assay, at 10 μM
Description: Biological Example 2: AT1 Receptor Binding
The same media, solutions, cell procedures and compound preparation was used as for Biological Example 1 but using HEK293/AT1 Receptor Transient Cells.

AT2 receptor = AT2 receptor (Homo sapiens (Human), UniProt P50052); test: AT2 receptor binding assay ([125I]-CGP42112A, HEK293/AT2 receptor cell membranes); details: displacement of [125I]-CGP42112A
Method: Trypsin-EDTA (for preparation of 100 mL) • Trypsin 0.25 g • 2% EDTA 2 mL • PBS 98 mL • Dissolve trypsin in 2% EDTA and PBS completely; sterilize the solution by passing through a […] membrane filter; store at 4° C. • 2. […] Add slowly with stirring. • Dilute to 1 liter with ddH2O. • Sterilize the medium immediately by filtration. • Store at 4° C. • 3. TE buffer • 20 mM Tris-HCl, pH 7.4, • 5 mM EDTA • 4. Binding Assay Buffer • 50 mM Hepes, pH 7.4 • 5 mM MgCl2 • 1 mM CaCl2 • 0.2% BSA • 5.
Cells were ready for transfection after overnight incubation (the confluence reaches around 80%). • 75 μL Lipofectamine™2000 diluted in 6.25 mL OptiMEM I Reduced Serum Medium, was mixed gently, and incubated at room temperature for 5 minutes. 50 μg expression plasmid DNA diluted in 6.25 mL OptiMEM I Reduced Serum Medium without serum was mixed gently. • After the 5 minute incubation, the diluted DNA was combined with the diluted Lipofectamine™2000 (total volume is 12.5 mL).
Solutions of all compounds were prepared by microplate liquid handling equipment such as Janus or Precision 2000. Compounds, dissolved in DMSO were stored in a Freezer. Compounds were prepared from 30 mM in 100% DMSO.
All the compounds were diluted using Precision 2000 microplate liquid handling equipment. The top concentration of compound was 5 mM with 100% DMSO.
Step 3: Assay Plate Preparation (96 Well Plate)

NG108-15 neurite cells = test: AT2 receptor neurite outgrowth assay; type: cell-based; details: NG108-15 cells, in the presence of angiotensin II 0.1 μM, compound 0.003-10 μM
Method: Biological Example 3: AT2 Receptor Neurite Outgrowth Assay
The general methodology of Wallinder (2008) and references cited therein was used to assess the effect of the compounds of the present invention on neurite outgrowth. The assay was adapted for high content screening.
EMA1087 is a known AT2 receptor agonist described as “compound 21” in Wan et al. 2004. PD-123,319 is a known, commercially available AT2 receptor antagonist. The results were analyzed by immunofluorescence quantitative analysis. Neurite outgrowth was quantified with neurite average length using Cellomics software. Results are expressed as the mean±SEM, each conducted in triplicate. Statistical significance, compared with Ang II control: *p<0.05, **p<0.01, and ***p<0.001. NS: no significant difference. ND: not determined. FIGS. 1 to 5 show neurite outgrowth was inhibited by the AT2 receptor antagonists, PD-126,055 and compounds 6, 15, 21 and 28.

Sequence of AT2 receptor (P50052 whole entry, species assumed): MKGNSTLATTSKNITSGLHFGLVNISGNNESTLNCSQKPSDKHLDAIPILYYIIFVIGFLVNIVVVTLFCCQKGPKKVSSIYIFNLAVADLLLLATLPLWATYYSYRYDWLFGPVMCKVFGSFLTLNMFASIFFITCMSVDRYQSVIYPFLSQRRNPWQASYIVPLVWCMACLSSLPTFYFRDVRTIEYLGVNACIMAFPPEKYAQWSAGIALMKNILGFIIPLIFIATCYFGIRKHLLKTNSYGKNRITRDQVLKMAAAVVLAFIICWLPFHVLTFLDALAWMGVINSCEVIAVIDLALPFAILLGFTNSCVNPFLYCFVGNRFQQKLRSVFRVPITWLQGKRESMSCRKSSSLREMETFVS
Sequence of AT1 receptor (P30556 whole entry, species assumed): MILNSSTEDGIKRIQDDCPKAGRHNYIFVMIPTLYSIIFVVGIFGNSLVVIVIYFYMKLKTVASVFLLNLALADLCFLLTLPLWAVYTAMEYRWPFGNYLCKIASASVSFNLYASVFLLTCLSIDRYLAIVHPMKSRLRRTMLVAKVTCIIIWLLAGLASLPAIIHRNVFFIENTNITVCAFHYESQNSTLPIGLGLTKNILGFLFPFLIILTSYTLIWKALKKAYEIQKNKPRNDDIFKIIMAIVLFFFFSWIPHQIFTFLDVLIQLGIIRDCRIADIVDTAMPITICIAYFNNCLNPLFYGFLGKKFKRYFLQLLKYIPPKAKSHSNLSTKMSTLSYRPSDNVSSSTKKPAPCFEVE

Row | SMILES | IC50 (AT2 receptor) [nM] | AT1 receptor binding (AT1 receptor) | neurite outgrowth (neurite average length) (NG108-15 neurite cells)
1 | CN(C)S(=O)(=O)NC(=O)[C@@H]1C[C@H](OCCCc2ccccc2)CN1C(=O)C(c1ccccc1)c1ccccc1 [Compound 112, (2S,4S)—N—(N,N-dimethylsulfamoyl)-1-(2,2-diphenylacetyl)-4-(3-phenylpropoxy)pyrrolidine-2-carboxamide] | – | —: No significant inhibition of binding of the radiolabelled ligand even at top concentration tested (10 μM). Compounds 6, 112, 136 and 138 were also analysed in a similar assay and showed no AT1 receptor binding at 10 μM. | –
2 | O=C(O)[C@@H]1C[C@H](c2sccc2-c2ccccc2)CN1C(=O)C(c1ccccc1)c1ccccc1 [Compound 107, (2S,4S)-1-(2,2-diphenylacetyl)-4-(3-phenylthiophen-2-yl)-pyrrolidine-2-carboxylic acid] | 461 | – | –
3 | O=C(O)C1Cc2c(OCc3ccccc3)cccc2N1C(=O)C(c1ccccc1)c1ccccc1 (stereo not drawn) [Compound 15, 4-(benzyloxy)-1-(2,2-diphenylacetyl)indoline-2-carboxylic acid] | – | – | inhibited

The next lines start with results.

Row | IC50 (AT2 receptor) [nM] | SMILES | AT1 receptor binding (AT1 receptor) | neurite outgrowth (neurite average length) (NG108-15 neurite cells)
4 | 173 | CN(CCCc1ccc(F)cc1)[C@H]1C[C@@H](C#N)N(C(=O)C(c2ccccc2)c2ccccc2)C1 [Compound 137, (2S,4S)-1-(2,2diphenylacetyl)-4-((3-(4-fluorophenyl)propyl)(methyl)amino)pyrrolidine-2-carbonitrile] | – | –
5 | 89 | CN(CCCc1ccc(F)cc1)[C@H]1C[C@@H](C(N)=O)N(C(=O)C(c2ccccc2)c2ccccc2)C1 [Compound 136, (2S,4S)-1-(2,2-diphenylacetyl)-4-((3-(4-fluorophenyl)propyl)(methyl)amino)pyrrolidine-2-carboxamide] | —: No significant inhibition of binding of the radiolabelled ligand even at top concentration tested (10 μM). Compounds 6, 112, 136 and 138 were also analysed in a similar assay and showed no AT1 receptor binding at 10 μM. | –
